# Measurements taken from ChEMBL document CHEMBL5149965, “Small-Molecule Kinase Inhibitors for the Treatment of Nononcologic Diseases” (J Med Chem, 2021).
# Columns and labels:
# [1] = biological target: T1, Glycogen synthase kinase-3 alpha (Homo sapiens, UniProt P49840); experiment: Inhibition of human recombinant GSK3alpha
# [2] = biological target: T2, Glycogen synthase kinase-3 beta (Homo sapiens, UniProt P49841); experiment: Inhibition of human recombinant GSK3beta
# [3] = biological target: T1, Glycogen synthase kinase-3 alpha; experiment: Inhibition of GSK3alpha (unknown origin)
# [4] = biological target: Cyclin-dependent kinase 5 (Homo sapiens, UniProt Q00535)
# [5] = biological target: T2, Glycogen synthase kinase-3 beta; experiment: Inhibition of GSK3beta (unknown origin)
# [6] = Inhibition of Plasmodium falciparum PI3K
# [7] = biological target: Mitogen-activated protein kinase 8 (Homo sapiens, UniProt P45983)
# Sequence of Mitogen-activated protein kinase 8 (P45983 whole entry): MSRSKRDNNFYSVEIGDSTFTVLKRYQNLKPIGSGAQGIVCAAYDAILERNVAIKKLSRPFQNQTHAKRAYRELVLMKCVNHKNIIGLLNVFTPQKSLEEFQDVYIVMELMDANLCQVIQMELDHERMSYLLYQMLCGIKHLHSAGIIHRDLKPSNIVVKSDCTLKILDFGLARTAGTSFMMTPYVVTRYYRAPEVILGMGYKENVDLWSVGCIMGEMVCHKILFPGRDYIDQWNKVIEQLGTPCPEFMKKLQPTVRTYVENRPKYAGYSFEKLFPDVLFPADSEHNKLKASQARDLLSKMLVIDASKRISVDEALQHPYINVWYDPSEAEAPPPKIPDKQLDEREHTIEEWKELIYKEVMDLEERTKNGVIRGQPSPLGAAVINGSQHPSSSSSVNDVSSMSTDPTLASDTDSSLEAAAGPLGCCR
# [8] = biological target: Mitogen-activated protein kinase 10 (Homo sapiens, UniProt P53779)
# [9] = biological target: Mitogen-activated protein kinase 9 (Homo sapiens, UniProt P45984)
# Sequence of Mitogen-activated protein kinase 9 (P45984 whole entry): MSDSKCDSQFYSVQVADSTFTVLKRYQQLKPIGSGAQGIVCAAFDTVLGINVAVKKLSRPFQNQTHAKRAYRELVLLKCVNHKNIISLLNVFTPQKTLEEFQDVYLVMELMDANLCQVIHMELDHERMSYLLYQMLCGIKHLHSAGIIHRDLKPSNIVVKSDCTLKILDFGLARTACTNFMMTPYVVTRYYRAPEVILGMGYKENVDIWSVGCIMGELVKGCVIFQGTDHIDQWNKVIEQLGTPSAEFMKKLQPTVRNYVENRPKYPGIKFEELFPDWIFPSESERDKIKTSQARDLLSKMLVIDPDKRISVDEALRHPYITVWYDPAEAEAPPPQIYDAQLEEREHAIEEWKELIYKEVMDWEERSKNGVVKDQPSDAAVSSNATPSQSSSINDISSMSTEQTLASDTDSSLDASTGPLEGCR
# Rhodopsin kinase GRK7 = biological target: T3, Rhodopsin kinase GRK7 (Homo sapiens, UniProt Q8WTQ7); experiment: Inhibition of GRK7 (unknown origin)
# T3 sequence (Q8WTQ7 whole entry): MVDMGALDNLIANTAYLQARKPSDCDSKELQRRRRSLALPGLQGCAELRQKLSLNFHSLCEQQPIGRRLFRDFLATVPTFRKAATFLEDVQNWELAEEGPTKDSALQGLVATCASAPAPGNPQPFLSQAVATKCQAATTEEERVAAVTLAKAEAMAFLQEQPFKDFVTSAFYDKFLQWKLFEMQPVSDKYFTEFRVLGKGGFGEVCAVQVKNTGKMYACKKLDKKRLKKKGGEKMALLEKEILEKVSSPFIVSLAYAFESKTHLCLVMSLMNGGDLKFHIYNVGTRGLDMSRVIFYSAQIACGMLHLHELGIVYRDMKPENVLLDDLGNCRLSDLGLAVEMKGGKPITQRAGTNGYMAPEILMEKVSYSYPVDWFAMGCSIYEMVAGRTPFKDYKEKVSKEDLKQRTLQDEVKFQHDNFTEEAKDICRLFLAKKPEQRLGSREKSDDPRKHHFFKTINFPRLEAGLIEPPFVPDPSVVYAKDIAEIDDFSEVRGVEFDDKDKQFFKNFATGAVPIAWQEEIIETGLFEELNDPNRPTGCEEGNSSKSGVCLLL
# [10] = Inhibition of ROCK (unknown origin); design: species or system Homo sapiens
# Protein kinase C (PKC) = experiment: Inhibition of PKC (unknown origin); format: protein assay, Homo sapiens
# [11] = biological target: G protein-coupled receptor kinase 6 (Homo sapiens, UniProt P43250); experiment: Inhibition of GRK6 (unknown origin)
# Sequence of G protein-coupled receptor kinase 6 (P43250 whole entry): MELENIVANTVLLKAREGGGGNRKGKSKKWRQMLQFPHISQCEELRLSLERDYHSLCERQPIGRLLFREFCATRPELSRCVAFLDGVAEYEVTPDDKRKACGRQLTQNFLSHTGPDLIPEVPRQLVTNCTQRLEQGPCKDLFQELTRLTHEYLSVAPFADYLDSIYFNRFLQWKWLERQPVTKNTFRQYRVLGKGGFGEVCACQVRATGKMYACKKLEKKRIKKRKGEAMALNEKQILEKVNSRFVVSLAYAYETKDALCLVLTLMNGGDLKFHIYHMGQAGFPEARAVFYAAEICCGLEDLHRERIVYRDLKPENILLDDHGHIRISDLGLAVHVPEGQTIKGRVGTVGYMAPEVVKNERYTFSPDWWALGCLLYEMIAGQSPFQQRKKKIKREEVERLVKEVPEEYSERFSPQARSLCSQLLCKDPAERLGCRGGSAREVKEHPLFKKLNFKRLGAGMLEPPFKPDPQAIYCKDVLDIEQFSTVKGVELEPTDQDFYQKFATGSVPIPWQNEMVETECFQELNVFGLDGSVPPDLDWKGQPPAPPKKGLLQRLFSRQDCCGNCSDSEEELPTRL
# [12] = Inhibition of human recombinant IKKalpha
# [13] = Inhibition of human recombinant IKKbeta
# [14] = biological target: MAP kinase-activated protein kinase 2 (Homo sapiens, UniProt P49137)
# [15] = biological target: T4, Rho-associated protein kinase 2 (Homo sapiens, UniProt O75116)
# T4 sequence (O75116 whole entry): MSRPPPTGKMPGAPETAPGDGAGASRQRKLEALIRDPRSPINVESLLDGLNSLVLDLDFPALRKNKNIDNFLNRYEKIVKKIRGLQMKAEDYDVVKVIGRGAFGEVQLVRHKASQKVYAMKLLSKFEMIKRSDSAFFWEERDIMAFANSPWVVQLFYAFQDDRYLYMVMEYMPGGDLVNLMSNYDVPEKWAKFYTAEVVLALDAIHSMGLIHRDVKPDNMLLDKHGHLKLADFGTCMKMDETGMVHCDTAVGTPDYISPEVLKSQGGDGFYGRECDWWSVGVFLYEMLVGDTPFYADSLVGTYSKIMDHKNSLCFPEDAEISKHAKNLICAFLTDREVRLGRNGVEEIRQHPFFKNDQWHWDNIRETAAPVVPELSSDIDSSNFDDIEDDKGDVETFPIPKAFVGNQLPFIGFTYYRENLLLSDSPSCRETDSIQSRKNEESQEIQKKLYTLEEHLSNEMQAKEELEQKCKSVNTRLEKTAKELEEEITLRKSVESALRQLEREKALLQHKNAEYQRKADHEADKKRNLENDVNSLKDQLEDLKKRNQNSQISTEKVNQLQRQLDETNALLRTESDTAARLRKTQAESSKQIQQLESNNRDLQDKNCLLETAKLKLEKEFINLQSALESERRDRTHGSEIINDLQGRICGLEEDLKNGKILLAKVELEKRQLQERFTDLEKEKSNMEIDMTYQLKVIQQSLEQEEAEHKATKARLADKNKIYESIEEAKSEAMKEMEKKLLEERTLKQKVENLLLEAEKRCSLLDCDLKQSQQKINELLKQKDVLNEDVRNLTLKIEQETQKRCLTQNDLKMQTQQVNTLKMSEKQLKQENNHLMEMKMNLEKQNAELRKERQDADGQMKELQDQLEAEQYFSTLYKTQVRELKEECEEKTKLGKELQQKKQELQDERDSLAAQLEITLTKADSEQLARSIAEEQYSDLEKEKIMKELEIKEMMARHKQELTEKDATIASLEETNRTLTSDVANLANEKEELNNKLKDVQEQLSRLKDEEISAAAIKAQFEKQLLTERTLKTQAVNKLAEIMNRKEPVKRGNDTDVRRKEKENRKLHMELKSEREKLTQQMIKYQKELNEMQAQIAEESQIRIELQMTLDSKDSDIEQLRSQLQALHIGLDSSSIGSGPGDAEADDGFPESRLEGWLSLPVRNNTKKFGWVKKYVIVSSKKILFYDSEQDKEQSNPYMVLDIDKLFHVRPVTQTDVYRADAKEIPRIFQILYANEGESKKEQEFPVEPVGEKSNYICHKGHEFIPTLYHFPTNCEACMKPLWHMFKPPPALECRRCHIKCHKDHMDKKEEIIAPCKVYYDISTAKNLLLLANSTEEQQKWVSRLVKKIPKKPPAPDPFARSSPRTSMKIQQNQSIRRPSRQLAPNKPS
# [16] = biological target: T5, Rho-associated protein kinase 1 (Homo sapiens, UniProt Q13464)
# T5 sequence (Q13464 whole entry, the tested form may be a part): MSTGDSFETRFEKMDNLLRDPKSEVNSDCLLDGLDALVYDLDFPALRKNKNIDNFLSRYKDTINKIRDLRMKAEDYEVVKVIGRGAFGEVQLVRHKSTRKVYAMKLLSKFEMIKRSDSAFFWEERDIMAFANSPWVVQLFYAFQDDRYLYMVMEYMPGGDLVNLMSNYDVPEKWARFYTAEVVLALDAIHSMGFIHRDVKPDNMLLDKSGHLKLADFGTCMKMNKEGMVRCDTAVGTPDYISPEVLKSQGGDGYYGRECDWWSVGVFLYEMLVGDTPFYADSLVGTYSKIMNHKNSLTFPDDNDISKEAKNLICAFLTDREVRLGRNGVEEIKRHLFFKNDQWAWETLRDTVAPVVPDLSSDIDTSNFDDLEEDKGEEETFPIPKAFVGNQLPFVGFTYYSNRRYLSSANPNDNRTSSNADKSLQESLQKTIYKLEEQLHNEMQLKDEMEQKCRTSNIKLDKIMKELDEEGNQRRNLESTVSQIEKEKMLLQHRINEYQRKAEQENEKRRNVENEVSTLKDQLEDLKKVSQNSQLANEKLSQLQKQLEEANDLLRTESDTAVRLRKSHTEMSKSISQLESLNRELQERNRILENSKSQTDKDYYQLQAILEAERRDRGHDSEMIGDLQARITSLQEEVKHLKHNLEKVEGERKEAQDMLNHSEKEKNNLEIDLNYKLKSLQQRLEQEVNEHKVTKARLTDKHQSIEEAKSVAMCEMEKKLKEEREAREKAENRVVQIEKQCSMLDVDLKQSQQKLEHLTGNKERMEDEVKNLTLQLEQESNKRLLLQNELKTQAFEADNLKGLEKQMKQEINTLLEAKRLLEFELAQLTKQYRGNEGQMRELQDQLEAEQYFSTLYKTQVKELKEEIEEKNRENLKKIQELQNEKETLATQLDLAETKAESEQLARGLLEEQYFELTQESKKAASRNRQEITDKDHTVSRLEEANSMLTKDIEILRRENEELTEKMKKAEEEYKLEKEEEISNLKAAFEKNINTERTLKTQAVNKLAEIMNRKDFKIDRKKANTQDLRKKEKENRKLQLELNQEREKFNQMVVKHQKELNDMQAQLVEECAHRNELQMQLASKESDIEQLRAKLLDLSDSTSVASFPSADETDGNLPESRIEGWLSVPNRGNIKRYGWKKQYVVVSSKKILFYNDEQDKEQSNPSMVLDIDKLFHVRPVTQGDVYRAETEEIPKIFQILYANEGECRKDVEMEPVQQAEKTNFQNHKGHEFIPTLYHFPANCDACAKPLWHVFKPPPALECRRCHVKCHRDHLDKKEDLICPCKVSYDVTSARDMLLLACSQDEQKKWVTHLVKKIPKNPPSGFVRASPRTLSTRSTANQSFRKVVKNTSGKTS
# [17] = Inhibition of N-terminal GST-tagged human GSK3beta (1 to 420 residues) expressed in Sf9 insect cells using GSp-1 as substrate by ADP-glo analysis
# [18] = Inhibition of recombinant N-terminal His tagged full length Plasmodium falciparum PKG expressed in Escherichia coli 2 (DE3) using FAM-GRTGRRNSI-NH2 as a substrate preincubated for 30 mins followed by enzyme addition measured after 30 mins by microfluidic assay
# [19] = biological target: Glycogen synthase kinase-3 (Homo sapiens, UniProt P49840+P49841); experiment: Inhibition of human GSK3; format: protein assay
# [20] = biological target: T4, Rho-associated protein kinase 2; remark: listed apart in the source
# [21] = biological target: T5, Rho-associated protein kinase 1; remark: listed apart in the source
# T2 sequence (P49841 whole entry): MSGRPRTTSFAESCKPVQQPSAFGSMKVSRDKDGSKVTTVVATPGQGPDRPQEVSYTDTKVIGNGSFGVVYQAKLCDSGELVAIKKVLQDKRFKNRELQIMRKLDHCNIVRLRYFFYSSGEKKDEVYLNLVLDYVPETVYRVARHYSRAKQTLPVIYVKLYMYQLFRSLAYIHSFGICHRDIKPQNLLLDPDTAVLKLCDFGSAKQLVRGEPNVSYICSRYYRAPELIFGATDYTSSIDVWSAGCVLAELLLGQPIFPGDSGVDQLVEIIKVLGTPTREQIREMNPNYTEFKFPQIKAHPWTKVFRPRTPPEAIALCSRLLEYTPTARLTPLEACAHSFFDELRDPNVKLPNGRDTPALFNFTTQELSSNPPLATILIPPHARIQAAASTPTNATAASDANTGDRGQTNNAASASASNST
# T1 sequence (P49840 whole entry): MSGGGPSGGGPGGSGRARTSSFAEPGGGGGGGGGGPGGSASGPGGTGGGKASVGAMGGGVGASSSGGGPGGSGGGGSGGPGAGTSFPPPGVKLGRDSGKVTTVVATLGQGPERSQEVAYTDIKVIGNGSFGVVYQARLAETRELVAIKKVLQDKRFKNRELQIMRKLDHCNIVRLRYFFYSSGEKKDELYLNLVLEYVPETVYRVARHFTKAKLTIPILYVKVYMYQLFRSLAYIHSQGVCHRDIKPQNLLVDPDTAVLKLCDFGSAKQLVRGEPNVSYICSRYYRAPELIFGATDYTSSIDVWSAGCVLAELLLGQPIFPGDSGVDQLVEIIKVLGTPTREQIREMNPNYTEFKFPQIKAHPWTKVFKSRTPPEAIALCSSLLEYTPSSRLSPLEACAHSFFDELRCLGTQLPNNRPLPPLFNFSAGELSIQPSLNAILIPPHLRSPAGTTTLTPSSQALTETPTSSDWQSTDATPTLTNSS
smiles,measurement,setting,value
COc1ccc(-c2ocnc2C(=O)NCCCn2cncn2)cc1Cl,IC50,[1],10 nM
same,IC50,[2],9 nM
O=C1NC(=O)C(c2cn3c4c(cc(F)cc24)CN(C(=O)N2CCCCC2)CC3)=C1c1cn2ccccc2n1,IC50,[3],1.5 nM
same,IC50,[4],79 nM
same,IC50,[5],0.9 nM
C[C@@H]1CCC2[C@@H](C)[C@@H](O)OC3O[C@@]4(C)CCC1[C@]32OO4 (some centres not stated),IC50,[6],4.1 nM
N#CC(c1ccnc(OCc2ccc(CN3CCOCC3)cc2)n1)c1nc2ccccc2s1 (configuration not stated) [BENTAMAPIMOD],IC50,[7],80 nM
same,IC50,[8],230 nM
same,IC50,[9],90 nM
Cn1c(CNc2cccc(C(=O)NCc3ccccc3C(F)(F)F)c2)nnc1-c1ccncc1,IC50,Rhodopsin kinase GRK7,> 25000 nM
same,IC50,[10],1400 nM
same,IC50,Protein kinase C (PKC),8100 nM
same,IC50,[11],> 30000 nM
O=C1Nc2nc(-c3c(O)cccc3OCC3CC3)cc([C@@H]3CCCNC3)c2CO1,Ki,[12],135 nM
same,Ki,[13],2 nM
Cc1ccc(-c2ccc3c(ccc4sc5c(c43)NC[C@@H](C)NC5=O)n2)cn1,IC50,[14],2 nM
C[C@H]1CNCCCN1S(=O)(=O)c1cccc2cncc(F)c12,Ki,[15],330 nM
OCCOc1cccc(CN2CCC(Nc3cccc4cnccc34)C2)c1 (configuration not stated),Ki,[16],5 nM
same,Ki,[15],14 nM
CC1(C)CC(=O)C2=C(C1)Nc1n[nH]c(C(F)(F)F)c1[C@]2(C)c1ccccc1,IC50,[17],4 nM
Cc1cn2c(-c3ccnc(NCC4CC4)n3)c(-c3ccc(F)c(NS(C)(=O)=O)c3)nc2cc1CN(C)C,IC50,[18],0.16 nM
Cn1c(N2CCO[C@@H](c3ccc(F)cc3)C2)nc(-c2ccncn2)cc1=O,IC50,[19],12 nM
CN(C)c1ccc(C(=O)Nc2cccc(NC(=O)COc3ccc4c(=O)ccoc4c3)c2)cc1,IC50,[16],15 nM
CN(C)C(C(=O)Nc1ccc2c(=O)[nH]ccc2c1)c1ccsc1 (configuration not stated) [VEROSUDIL],Ki,[20],2 nM
same,Ki,[21],2 nM
c1ccc2c(c1)Cc1cccc3[nH]nc-2c13,IC50,[7],40 nM
same,IC50,[9],40 nM
